In experiment [1] the test system is 12-month old male Wistar rats. The experiment in a line: Morris water maze test, spatial reference memory. It counts as in vivo, rat. On the procedure:
We used male Wistar rats 12, 8 or 4 months of age.
The Morris water maze test was conducted using a black plastic pool filled to a depth of 25 cm with water colored black with a non-toxic dye. […] The platform remained in that position though the training.
The experiment used extra-maze cues (i.e. objects in the room surrounding the pool) that the rats could use to navigate to the platform. Distinctive posters or paintings were hung on the walls. Furniture in the room was not moved during the testing period. The placement of the pool allowed the experimenter an easy access to it from all sides. The pool was emptied and refilled daily during testing, with water at 25° C.+/−2° C.
The furthermost point in the pool (relative to the position of the experimenter) was designated as “north”, and the other compass points “east”, “south” and “west” were the right-most, bottom and left-most points of the pool respectively. These points were marked with tape on the outside of the pool.
Rats in each group were trained to swim to the submerged platform. The rats received six 60-second trials per day for four consecutive days. A trial began by placing the rat into the water facing the wall of the pool, at one of four start locations (north, south, east, west). […]

Experiment [2] relates to GFAP-positive reactive astrocytes. Briefly: GFAP staining, astrocytosis in aged brains. The settings on record: i.p.; 18-month old rats; 3 d after injection; vs vehicle p<0.05, particularly 0.12 and 12 mg/kg. It counts as in vivo, rat. On the procedure: To carry out these studies, tissues were fixed and embedded in paraffin and sections obtained using standard methods. Coronal sections (6 μm) containing the level of the hippocampus were cut and mounted on chrome-alum-coated slides for staining. The sections were deparaffinized in xylene, dehydrated in a series of ethanol and incubated in 0.1 M phosphate buffered saline (PBS).
Primary antibodies against glial fibrillary acidic protein (GFAP) and proliferating cell nuclear antigen (PCNA) were used to mark reactive glial cells and cells undergoing apoptosis and proliferation, respectively. […]
Control sections were processed in the same way except the primary antibody was omitted from the incubation solution. The number of PCNA positive cells was counted in the subventricular zone and the GFAP positive cells was scored in the cerebral cortex.
Using GFAP as a marker for reactive astrocytes, the number of GFAP-positive cells was counted in the CA4 sub-region of the hippocampus of aged rats treated with G-2MeP or vehicle. […]
We also evaluated effects of G-2-MePE on astrocytosis in the CA4 sub-region of the hippocampus in aged rats. […]
GFAP-positive cells were counted using a computerised program (Discovery 1). G-2-MePE was administered intra-peritoneally and the numbers of GFAP-positive cells were assessed 3d after the injection. […]

Non-standard residues stand in square brackets, D forms with d. Residues, ends and D or L forms follow the SMILES beside them. αMeP = C[C@@]1(C(=O)O)CCCN1

With `C[C@@]1(C(=O)N[C@@H](CCC(=O)O)C(=O)O)CCCN1C(=O)CN` [Example G-2-MePE, Glycyl-L-2-methylprolyl-L-glutamic acid] (H-Gly-[αMeP]-Glu-OH), the “time needed to reach the platform, retention phase” value in experiment [1] (high (4.8 mg/day) or low (0.96 mg/day) dose, vs saline-treated controls, 12 month old rats) was “decrease in the time needed to reach the platform”. The “retention of the original water maze task” value in experiment [1] (high dose 4.8 mg/day s.c. minipump over 3 weeks, 4-week delay, vs 3-week vehicle) was “improved the retention”. In experiment [2], the “number of reactive astrocytes (GFAP) in the CA4 region of the hippocampus” value is “reduced”.

The values are drawn from patent US9212204B2, “Treatment of rett syndrome using glycyl-L-2-methylprolyl-L-glutamic acid” (priority 2011, dated 2015).
